# Results from patent publication US20150272979A1, “COMBINATION THERAPEUTIC COMPOSITION” (Hoffman La-Roche Inc., priority 2012, published 2015).
# Columns and labels:
# HCV replication = conditions: general statement; cited from earlier work
# CYP3A4 = CYP3A4 (Homo sapiens, UniProt P08684); test: Metabolism by recombinant CYPs; assay type: in vitro ADME
# From the text: (§1) Therefore, a cytochrome P450 monooxygenase inhibitor in an amount effective to inhibit metabolism of the protease inhibitor could increase the bioavailability of Compound 2 compared to administration in the absence of the CYP inhibitor.
# [1] = system: CYP isozymes including 3A4, 2C19, 1A2, 2D6, and 2C9; test: Cytochrome P450 phenotyping using chemical inhibitors; assay type: in vitro ADME; conditions: early preclinical studies
# From the text: as §1
# CYP3A4, sequence (P08684 whole entry): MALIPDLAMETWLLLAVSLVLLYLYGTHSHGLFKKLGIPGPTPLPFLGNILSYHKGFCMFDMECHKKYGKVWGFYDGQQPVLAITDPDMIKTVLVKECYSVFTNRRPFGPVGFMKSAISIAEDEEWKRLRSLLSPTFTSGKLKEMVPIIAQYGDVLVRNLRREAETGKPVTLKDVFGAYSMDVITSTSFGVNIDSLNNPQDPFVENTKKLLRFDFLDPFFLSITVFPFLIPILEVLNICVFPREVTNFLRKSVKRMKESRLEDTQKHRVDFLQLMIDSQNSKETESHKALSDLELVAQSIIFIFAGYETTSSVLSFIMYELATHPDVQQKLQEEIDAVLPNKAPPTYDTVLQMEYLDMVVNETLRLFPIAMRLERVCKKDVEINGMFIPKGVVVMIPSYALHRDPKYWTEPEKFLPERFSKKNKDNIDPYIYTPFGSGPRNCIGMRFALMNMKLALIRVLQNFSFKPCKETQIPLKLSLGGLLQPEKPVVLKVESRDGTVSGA
Compound,Inhibition of HCV replication (HCV replication),Metabolism by recombinant CYPs (CYP3A4),CYP isozymes participating in metabolism [1]
CS(=O)(=O)Nc1ccc2c(c1)S(=O)(=O)N=C(C1=C(O)C3C([C@@H]4CC[C@H]3C4)N(Cc3ccc(F)cc3)C1=O)N2 (stereo partly shown) [Compound 3],effective in inhibiting HCV replication,,
"CC(C)(C)OC(=O)N[C@H]1CCCCC/C=C\[C@@H]2C[C@@]2(C(=O)NS(=O)(=O)C2CC2)NC(=O)[C@@H]2C[C@@H](OC(=O)N3Cc4cccc(F)c4C3)CN2C1=O [Compound 2, (1S,4R,6S,14S,18R)-4-Fluoro-1,3-dihydro-isoindole-2-carboxylic acid 14-tert-butoxycarbonylamino-4-cyclopropanesulfonylaminocarbonyl-2,15-dioxo-3,16-diaza-tricyclo[14.3.0.04,6]nonadec-7-en-18-yl ester]",effective in inhibiting HCV replication,only CYP3A4 metabolized Compound 2 to an extent that could influence the pharmacokinetics,"multiple CYP isozymes including 3A4, 2C19, 1A2, 2D6, and 2C9 participate in the metabolism"
